How the values were obtained:
[1] = tested on: HCT-8; test: Cytotoxicity against human HCT8 cells after 48 hrs by MTT assay; type: functional, cell-based; conditions: HCT-8, 48 h
[2] = tested on: A-375; test: Cytotoxicity against human A375 cells after 48 hrs by MTT assay; type: functional, cell-based; conditions: A-375, 48 h
[3] = tested on: P388; test: Cytotoxicity against mouse P388 cells after 48 hrs by MTT assay; type: functional, cell-based; conditions: P388, 48 h
[4] = tested on: MCF7; test: Cytotoxicity against human MCF7 cells after 48 hrs by MTT assay; type: functional, cell-based; conditions: MCF7, 48 h
[5] = tested on: HeLa; test: Cytotoxicity against human HeLa cells after 48 hrs by MTT assay; type: functional, cell-based
[6] = tested on: A549; test: Cytotoxicity against human A549 cells after 72 hrs by SRB assay; type: functional, cell-based; conditions: A549, 72 h
[7] = tested on: HL-60; test: Cytotoxicity against human HL60 cells after 48 hrs by MTT assay; type: functional, cell-based; conditions: HL-60, 48 h
[8] = target: Albumin (Bos taurus, UniProt P02769); test: Binding affinity to bovine serum albumin at 10 uM after 15 mins by spectrophotometric titration; type: ADME; conditions: cattle, isolated protein, 0.25 h
[9] = tested on: DNA; test: Binding affinity to calf thymus DNA by fluorescence titration; type: nucleic-acid assay; conditions: Bos taurus
[10] = tested on: DNA; test: Binding affinity to calf thymys DNA assessed as increase in viscosity; type: nucleic-acid assay; conditions: Bos taurus

Chain of Albumin (P02769 whole entry): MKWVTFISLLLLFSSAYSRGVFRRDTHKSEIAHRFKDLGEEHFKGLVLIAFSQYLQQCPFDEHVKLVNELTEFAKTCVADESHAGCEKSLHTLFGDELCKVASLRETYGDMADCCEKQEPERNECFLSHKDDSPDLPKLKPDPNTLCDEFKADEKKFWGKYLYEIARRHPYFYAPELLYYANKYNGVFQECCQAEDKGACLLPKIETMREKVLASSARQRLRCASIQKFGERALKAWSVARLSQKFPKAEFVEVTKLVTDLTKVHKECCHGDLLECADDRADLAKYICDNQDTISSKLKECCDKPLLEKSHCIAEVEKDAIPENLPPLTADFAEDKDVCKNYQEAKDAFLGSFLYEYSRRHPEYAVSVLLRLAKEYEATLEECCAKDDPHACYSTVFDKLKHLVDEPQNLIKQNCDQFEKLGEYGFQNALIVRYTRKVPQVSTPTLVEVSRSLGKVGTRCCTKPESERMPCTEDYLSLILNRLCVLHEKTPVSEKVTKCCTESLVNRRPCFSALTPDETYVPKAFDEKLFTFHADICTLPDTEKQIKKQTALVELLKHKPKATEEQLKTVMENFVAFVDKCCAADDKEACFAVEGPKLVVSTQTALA

Row | SMILES | Activity [8] | Ka [9] | Activity [10] | IC50 [1] | IC50 [2] | IC50 [3] | IC50 [4] | IC50 [5] | IC50 [6] | IC50 [7]
1 | COc1cc(-c2ccc(NC(=O)[C@H](CC(C)C)N3C(=O)c4cccc5c(NCCN(C)C)ccc(c45)C3=O)c(OC)c2)ccc1N |  |  |  | > 50 µM | 6.51 µM | 7.67 µM | 15 µM | 6.74 µM | 25.1 µM | 22.8 µM
2 | CC(C)C[C@@H](C(=O)Nc1ccc(S(=O)(=O)c2ccc(N)cc2)cc1)N1C(=O)c2cccc3c(NCCN(C)C)ccc(c23)C1=O |  |  |  | > 50 µM | > 50 µM | > 50 µM | 8.64 µM | > 50 µM | 17.2 µM | > 50 µM
3 | CC(C)C[C@@H](C(=O)Nc1ccc(S(N)(=O)=O)cc1)N1C(=O)c2cccc3c(NCCN(C)C)ccc(c23)C1=O |  | 4.92 ×10⁴ /M | Dose-dependent effect | > 50 µM | 6.6 µM | 7.23 µM | 8.65 µM | 8.09 µM | > 50 µM | 17.8 µM

Further lines, with some results ahead:

Row | Activity [8] | Ka [9] | Activity [10] | SMILES | IC50 [1] | IC50 [2] | IC50 [3] | IC50 [4] | IC50 [5] | IC50 [6] | IC50 [7]
4 | Active |  |  | CC(C)C[C@@H](C(=O)Nc1ccc(S(N)(=O)=O)cc1)N1C(=O)c2cccc3c(NCCSc4ccccc4)ccc(c23)C1=O | > 50 µM | > 50 µM | > 50 µM | 12.6 µM | > 50 µM | > 50 µM | > 50 µM
5 | Active |  |  | CC(C)C[C@@H](C(=O)Nc1ccc(S(=O)(=O)c2ccc(N)cc2)cc1)N1C(=O)c2cccc3c(NCCSc4ccccc4)ccc(c23)C1=O | > 50 µM | > 50 µM | > 50 µM | 24.6 µM | > 50 µM | > 50 µM | > 50 µM
6 | Active |  |  | COc1cc(-c2ccc(NC(=O)[C@H](CC(C)C)N3C(=O)c4cccc5c(NCCSc6ccccc6)ccc(c45)C3=O)c(OC)c2)ccc1N | > 50 µM | > 50 µM | > 50 µM | 9.45 µM | > 50 µM | > 50 µM | > 50 µM

Reference: ChEMBL document CHEMBL1140885, “Novel naphthalimide-amino acid conjugates with flexible leucine moiety as side chain: design, synthesis and potential antitumor activity” (Bioorg Med Chem, 2009)
